Laboratory results: patent US6380181B1, “Synthetic catechol derivatives, method for production and use thereof” (priority 1996, dated 2002)
≈ marks a conversion by molar mass, not a printed value. Read-outs that look alike come from different tables or passages of the source.

Tests used:
Assay type in all cases: cell-based
[1] = test system: Pseudomonas aeruginosa ATCC 27853; test: Microdilution test (MIC); conditions: P. aeruginosa ATCC 27853
Procedure: (§1) The minimum inhibiting concentrations (MICs) were determined for the following bacterial strains: Pseudomonas aeruginosa NCTC 10701, NCTC 10662, SG 137, ATCC 27853, KW 799 WT and KW 799/61, E. coli DCO, DC2 and ATCC 25922, Serratia marcescens SG 621; Salmonella gallinarum ATCC 9184, Klebsiella pneumoniae ATCC 10031 and SG 117.

[2] = test system: Pseudomonas aeruginosa SG 137; test: Microdilution test (MIC); conditions: P. aeruginosa SG 137
Procedure: as §1

[3] = test system: Klebsiella pneumoniae ATCC 10031; test: Microdilution test (MIC)
Procedure: as §1

E. coli ATCC 25922 = test: Microdilution test (MIC)
Procedure: as §1

[4] = test system: Stenotrophomonas maltophilia GN 12873; test: Microdilution test (MIC)
[5] = test system: Pseudomonas aeruginosa K 407; conditions: Pseudomonas aeruginosa K407
Text: (§2) In the indicator mutants, the synthesis of the respective siderophores, e.g. pyoverdin, pyochelin, enterobactin, aerobactin or yersiniabactin, or the biosynthesis of aromatic compounds, is blocked, or there is a lack of receptors for enterobactin, pyochelin or pyoverdin and for other important components for the bacterial transport of iron (e.g. the membrane proteins Cir, Fiu, FepA and TonB). Under conditions where there is a lack of iron, these mutants therefore cannot grow or can only grow to a very slight extent. In particular, the following indicator mutants were used: Pseudomonas aeruginosa PAO 6609, K 407, 690; E. coli AB 2847, Salmonella typhimurium enb-7, TA 270; Klebsiella pneumoniae KN 4401; Yersinia enterocolitica WAH; Proteus mirabilis 12 (wild); Proteus vulgaris 718 (wild) and Morganella morganii SBK3 (wild). […] The controls used were ferrioxamine E for the Pseudomonas strains, ferrioxamine G and enterobactin for the Salmonella strains, ferrichrome for the E. coli, Klebsiella and Y. enterocol. strains, and 3,4-dihydroxybenzylidene-2,4,6-trimethylaniline for Morganella morganii (see the above literature reference by R. Reissbrodt et al.).
(§3) The annotations + and (+) relate to non-specific promotion of growth.

[6] = test system: Salmonella typhimurium TA 2700
Text: as §2, §3

[7] = test system: Salmonella typhimurium enb-7
Text: as §2, §3

[8] = test system: Pseudomonas aeruginosa 690
Text: as §2, §3

[9] = test system: Pseudomonas aeruginosa PAO 6609
Text: as §2, §3

[10] = test system: Morganella morganii SBK3 (wild); conditions: M. morg. SBK 3
Text: as §2, §3

[11] = test system: Klebsiella pneumoniae KN 4401; conditions: Klebsiella KN 4401
Text: as §2, §3

E. coli AB 2847 = test system: E. coli AB 2847
Text: as §2, §3

[12] = test system: Proteus mirabilis 12 (wild); conditions: Proteus mir. 12
Text: as §2, §3

[13] = test system: Proteus vulgaris 718 (wild); conditions: Proteus vul. 718
Text: as §2, §3

[14] = test system: Pseudomonas aeruginosa KW 799 WT; test: Microdilution test (MIC); conditions: P. aeruginosa KW 799/WT
Procedure: as §1
(§4) With the test germs KW 799/WT and /61 of Pseudomonas and DCO and DC2 of E. coli, the effect of improved penetration capacity on the efficacy of the substances was investigated.

[15] = test system: Pseudomonas aeruginosa KW 799/61; test: Microdilution test (MIC)
Procedure: as §1, §4

E. coli DC0 (wild type) = test: Agar diffusion test; conditions: concentration 100 μg/ml
[16] = test system: Pseudomonas aeruginosa SG 137 (carbenicillin-resistant); test: Agar diffusion test; conditions: concentration 100 μg/ml, P. aeruginosa SG 137
E. coli DC2 = test: microbe, parasite or virus in culture
Procedure: as §1, §4

[17] = test system: Pseudomonas aeruginosa KW 799 WT (wild type); test: Agar diffusion test; conditions: concentration 100 μg/ml, P. aeruginosa KW799/WT
[18] = test system: Pseudomonas aeruginosa KW 799/61 (penetration mutant); conditions: P. aeruginosa KW799/61
[19] = test system: Salmonella gallinarum ATCC 9184; conditions: concentration 100 μg/ml, Salmonella galinarum ATCC 9184
[20] = test system: E. coli DC2 (penetration mutant); conditions: concentration 100 μg/ml
[21] = test system: Stenotrophomonas maltophilia GN 12873; test: Agar diffusion test; conditions: concentration 100 μg/ml
[22] = test system: Pseudomonas aeruginosa NCTC 10662; test: Microdilution test (MIC); conditions: P. aeruginosa NCTC 10662
Procedure: as §1

[23] = test system: Serratia marcescens SG 621; test: Microdilution test (MIC)
Procedure: as §1

[24] = test system: Pseudomonas aeruginosa ATCC 27853 (wild type); test: Agar diffusion test; conditions: concentration 100 μg/ml; P. aeruginosa ATCC 27853
[25] = test system: Klebsiella pneumoniae ATCC 10031; test: Agar diffusion test; conditions: concentration 100 μg/ml
[26] = test system: Klebsiella pneumoniae SG 117; test: Agar diffusion test; conditions: concentration 100 μg/ml

SMILES: C[C@@H](O)[C@H]1C(=O)N2C(C(=O)O)=C(S[C@@H]3CN[C@H](C(=O)N(C)C)C3)[C@H](C)[C@H]12 [Meropenem, reference compound]
- MIC ([1]; Pseudomonas aeruginosa, ATCC27853): 0.2 µg/mL (≈ 0.522 µM)
- MIC ([2]; Pseudomonas aeruginosa, SG137): 0.1 µg/mL (≈ 0.261 µM)
- MIC ([3]; ATCC10031): < 0.05 µg/mL
- MIC (E. coli ATCC 25922; Escherichia coli, ATCC25922): < 0.05 µg/mL
- MIC ([4]; GN12873): > 100 µg/mL

SMILES: O=C(O)c1cccc(N=Nc2ccc(O)c(O)c2)c1 [Substance 8, 3-(3,4-Dihydroxyphenylazo)benzoic Acid]
- Growth areas of siderophore indicator strains (diameter) [5]: 15 mm
- Growth areas of siderophore indicator strains (diameter) [6]: 0 mm
- Growth areas of siderophore indicator strains (diameter) [7]: 0 mm
- Growth areas of siderophore indicator strains (diameter) [8]: 0 mm
- Growth areas of siderophore indicator strains (diameter) [9]: 13 mm
- Growth areas of siderophore indicator strains (diameter) [10]: 20 mm
- Growth areas of siderophore indicator strains (diameter) [11]: 20 mm
- Growth areas of siderophore indicator strains (diameter) (E. coli AB 2847): 13 mm
- Growth areas of siderophore indicator strains (diameter) [12]: 20 mm
- Growth areas of siderophore indicator strains (diameter) [13]: 20 mm

SMILES: COC(=O)Oc1ccc(C(=O)NN=C(C(=O)O)c2ccccc2)cc1OC(=O)OC [Substance 12, {[3,4-di(Methoxycarbonyloxy)-benzoyl]-hydrazono}-phenylacetic Acid]
- Growth areas of siderophore indicator strains (diameter) [5]: 0 mm
- Growth areas of siderophore indicator strains (diameter) [6]: 0 mm
- Growth areas of siderophore indicator strains (diameter) [7]: 0 mm
- Growth areas of siderophore indicator strains (diameter) [8]: 12 mm
- Growth areas of siderophore indicator strains (diameter) [9]: 14 mm
- Growth areas of siderophore indicator strains (diameter) [10]: 15 mm
- Growth areas of siderophore indicator strains (diameter) [11]: 30 mm
- Growth areas of siderophore indicator strains (diameter) (E. coli AB 2847): 14 mm
- Growth areas of siderophore indicator strains (diameter) [12]: 17 mm
- Growth areas of siderophore indicator strains (diameter) [13]: 20 mm

SMILES: COC(=O)Oc1cccc(C(=O)N2COC[C@H]2C(=O)N[C@@H](C(=O)N[C@@H]2C(=O)N3[C@@H]2SC(C)(C)[C@@H]3C(=O)O)c2ccccc2)c1OC(=O)OC [Substance 30, (S)-N-[3-(2,3-di-(Methoxycarbonyloxy)-benzoyl]-oxazolidin-4-oyl]-ampicillin]
- MIC values, microdilution test [14]: 0.78 µg/mL (≈ 1.11 µM)
- MIC values, microdilution test [15]: 0.2 µg/mL (≈ 0.285 µM)
- inhibition spot diameter in the agar diffusion test (E. coli DC0 (wild type)): 25 mm
- inhibition spot diameter in the agar diffusion test [16]: 22 mm
- MIC values, microdilution test (E. coli DC2): 0.4 µg/mL (≈ 0.571 µM)
- inhibition spot diameter in the agar diffusion test [17]: 27 mm
- inhibition spot diameter in the agar diffusion test ([18]; concentration 100 μg/ml): 33 mm
- inhibition spot diameter in the agar diffusion test [19]: 29 mm
- inhibition spot diameter in the agar diffusion test [20]: 31 mm
- inhibition spot diameter in the agar diffusion test [21]: 19 mm
- MIC values, microdilution test [22]: 6.25 µg/mL (≈ 8.92 µM)
- MIC values, microdilution test [2]: 0.4 µg/mL (≈ 0.571 µM)
- MIC values, microdilution test [23]: 50 µg/mL (≈ 71.4 µM)
- MIC values, microdilution test [3]: 6.25 µg/mL (≈ 8.92 µM)
- MIC values, microdilution test (E. coli ATCC 25922): 6.25 µg/mL (≈ 8.92 µM)
- MIC values, microdilution test [4]: 3.12 µg/mL (≈ 4.45 µM)

SMILES: CC(=O)Oc1cccc(C(=O)Nc2cc(NC(=O)c3cccc(OC(C)=O)c3OC(C)=O)cc(C(=O)N[C@@H](C(=O)N[C@@H]3C(=O)N4[C@@H]3SC(C)(C)[C@@H]4C(=O)O)c3ccccc3)c2)c1OC(C)=O [Substance 36, N-[3,5-bis-(2,3-diacetoxy-benzoylamino)-benzoyl]-ampicillin]
- inhibition spot diameter in the agar diffusion test (E. coli DC0 (wild type)): 13 mm
- inhibition spot diameter in the agar diffusion test [16]: 25 mm
- inhibition spot diameter in the agar diffusion test [24]: 19 mm
- inhibition spot diameter in the agar diffusion test [25]: 17 mm
- inhibition spot diameter in the agar diffusion test [17]: 25 mm
- inhibition spot diameter in the agar diffusion test [26]: 16 mm
- inhibition spot diameter in the agar diffusion test ([18]; concentration 100 μg/ml): 29 mm
- inhibition spot diameter in the agar diffusion test [19]: 23 mm
- inhibition spot diameter in the agar diffusion test [20]: 19 mm
- inhibition spot diameter in the agar diffusion test [21]: 24 mm
- MIC values, microdilution test [1]: 3.12 µg/mL (≈ 3.38 µM)
- MIC values, microdilution test [22]: 6.25 µg/mL (≈ 6.76 µM)
- MIC values, microdilution test [2]: 0.4 µg/mL (≈ 0.433 µM)
- MIC values, microdilution test (E. coli ATCC 25922): 25 µg/mL (≈ 27.1 µM)
- MIC values, microdilution test [4]: 1.56 µg/mL (≈ 1.69 µM)

SMILES: CC(=O)Oc1cccc(C(=O)NCCCC[C@H](NC(=O)c2cccc(OC(C)=O)c2OC(C)=O)C(=O)N[C@@H](C(=O)N[C@@H]2C(=O)N3[C@@H]2SC(C)(C)[C@@H]3C(=O)O)c2ccccc2)c1OC(C)=O [Substance Na-31, N-[L-2,6-bis-(2,3-diacetoxybenzoylamino)-hexanoyl]-ampicillin]
- inhibition spot diameter in the agar diffusion test (E. coli DC0 (wild type); listed as Na-31): 28 mm
- inhibition spot diameter in the agar diffusion test ([16]; listed as Na-31): 31 mm
- inhibition spot diameter in the agar diffusion test [24]: 24 mm
- inhibition spot diameter in the agar diffusion test [25]: 21 mm
- inhibition spot diameter in the agar diffusion test ([17]; listed as Na-31): 31 mm
- inhibition spot diameter in the agar diffusion test [26]: 26 mm
- inhibition spot diameter in the agar diffusion test ([18]; [ ] at 50 μg/ml): [38] mm
- inhibition spot diameter in the agar diffusion test ([19]; listed as Na-31): 34 mm
- inhibition spot diameter in the agar diffusion test ([20]; listed as Na-31): 38 mm
- inhibition spot diameter in the agar diffusion test ([21]; listed as Na-31): 29 mm
- MIC values, microdilution test [1]: 0.78 µg/mL (≈ 0.85 µM)
- MIC values, microdilution test ([22]; listed as Na-31): 0.78 µg/mL (≈ 0.85 µM)
- MIC values, microdilution test (E. coli ATCC 25922; listed as Na-31): 0.2 µg/mL (≈ 0.218 µM)
- MIC values, microdilution test ([4]; listed as Na-31): 6.25 µg/mL (≈ 6.81 µM)

SMILES: CC(=O)Oc1cccc(C(=O)NCCCC[C@H](NC(=O)c2cccc(OC(C)=O)c2OC(C)=O)C(=O)N[C@@H](C(=O)N[C@@H]2C(=O)N3[C@@H]2SC(C)(C)[C@@H]3C(=O)O)c2ccc(O)cc2)c1OC(C)=O [Substance Na-35, N-[L-2,6-bis-(2,3-diacetoxy-benzoylamino)-hexanoyl)-amoxicillin]
- inhibition spot diameter in the agar diffusion test (E. coli DC0 (wild type)): 24 mm
- inhibition spot diameter in the agar diffusion test [16]: 31 mm
- inhibition spot diameter in the agar diffusion test [24]: 22 mm
- inhibition spot diameter in the agar diffusion test [25]: 20 mm
- inhibition spot diameter in the agar diffusion test [17]: 30 mm
- inhibition spot diameter in the agar diffusion test [26]: 23 mm
- inhibition spot diameter in the agar diffusion test ([18]; [ ] at 50 μg/ml): [38] mm
- inhibition spot diameter in the agar diffusion test [19]: 33 mm
- inhibition spot diameter in the agar diffusion test [20]: 38 mm
- inhibition spot diameter in the agar diffusion test [21]: 28 mm
- MIC values, microdilution test [1]: 1.56 µg/mL (≈ 1.67 µM)
- MIC values, microdilution test [22]: 1.58 µg/mL (≈ 1.69 µM)
- MIC values, microdilution test [2]: 0.1 µg/mL (≈ 0.107 µM)
- MIC values, microdilution test (E. coli ATCC 25922): 0.2 µg/mL (≈ 0.214 µM)
- MIC values, microdilution test [4]: 6.25 µg/mL (≈ 6.69 µM)
